One substance from patent publication US20240425589A1, “CYTOTOXICITY-INDUCING THERAPEUTIC AGENT FOR USE IN TREATMENT OF CANCER” (CHUGAI SEIYAKU KABUSHIKI KAISHA, priority 2021, published 2024) can be followed below.

Experiment [1] has as its system CLDN6 expression in NIH:OVCAR-3. Nature of the experiment: CLDN6 expression by quantitative PCR after TGF-β1. As to conditions: TGF-β1 10 ng/ml, 5 days, vs untreated. It is filed as cell-based, human. How it is done: Therefore, it was speculated that TGF-β1 induced by treatment with an anticancer agent may affect CLDN6 expression. Accordingly, analyzes were performed to determine whether […] induces CLDN6 expression in the human ovarian cancer cell line (NIH:OVCAR-3, ATCC). Regarding the NIH:OVCAR-3 cells seeded on culture plates, RNAs were purified (RNeasy Mini Kit, QIAGEN) from untreated cells or from cells collected 5 days after addition of TGF-β1 (R & D Systems, 10 ng/ml), and then cDNA synthesis (Superscript IV VILO Master Mix, ThermoFisher) was performed. By using the cDNAs as templates, real-time PCR was performed using CLDN6-specific primers (Power SYBR (registered trademark) Green Master Mix, ThermoFisher) to analyze CLDN6 expression (QuantStudio 12K Flex Real-Time PCR System, ThermoFisher).
The same primers as those in the above-mentioned Example 21.1 were used as the primers for human CLDN6 and for the primers for human GAPDH used as the internal control.

For experiment [2], the system named is CLDN6 expression in NIH:OVCAR-3, COV413A, COV413B, COV362. Nature of the experiment: CLDN6 expression by FACS after TGF-β1. In kind it is cell-based, human. As to conditions: TGF-β1 10 ng/mL, four days, vs untreated. How it is done:
Next, analyses were performed to determine whether TGF-β1 induces CLDN6 expression in other ovarian cancer cell lines. In addition to NIH:OVCAR-3 cells, COV413A cells (ECACC), COV413B (ECACC), and COV362 (ECACC) were seeded on culture plates, and TGF-β1 was added at 10 ng/mL. Four days later, cells were recovered, and CLDN6 expression was analyzed by FACS analysis.
In the FACS analysis, cells were detached from the culturing flask to produce a cell suspension, these cells were stained using an anti-CLDN6 antibody (CS4135 mIgG1: the heavy-chain and light-chain amino acid sequences are shown in SEQ ID NOs: 210 and 211, respectively, and the heavy-chain and light-chain nucleotide sequences are shown in SEQ ID NOs: 212 and 213, respectively) labeled with Alexa Flour 488 (Alexa Fluor 488 antibody labeling kit, ThermoFisher Scientific), and the amount of CLDN6 expression was analyzed using a flow cytometer (FACSlyric, BD Biosciences). The CS4135 mIgG1 antibody is a chimeric antibody produced by linking the Fc region of a mouse IgG1 to the Fab of the CS4135 antibody.
(In general: Flow cytometry measures light scatter and fluorescence of single cells or particles in a stream.)

Turning to “TGF-β1: TGF-β1 (R & D Systems) added to cells at 10 ng/ml”, the CLDN6 expression entry in experiment [1] is recorded as “Increase in CLDN6 expression was observed”; in experiment [2], “increased CLDN6 expression”.
